Entries after “also recorded” stand apart in the source; their conditions may differ.
What was measured:
[1] = test system: subtype A DIS kissing-loop complex (23-mer RNA); experiment: Lead(II)-induced cleavage of the DIS loop, 23-mer RNA (footprinting); format: binding, HIV-1; conditions: for inhibition of lead-induced cleavage of the DIS loop, relative efficiency: FIG. 21; for inhibition of lead-induced cleavage of the subtype A DIS loop: 25 μM aminoglycoside
Protocol: (§1) Materials and Methods: Chemical footprinting experiments were performed on a 23-mer subtype A SL1 RNA or on RNA1-615, which corresponds to nucleotides 1-615 of HIV-1 Mal genomic RNA (Ennifar et al., J. Biol. Chem. 2003 278:2723-2730). Chemical modification was carried out either with dimethyl sulfate (DMS, Fluka) to test the accessibility of N1-A and N3-C positions or with lead acetate (Merck), which selectivity cleaves the subtype A DIS loop between the first and second nucleotides.
(§2) The binding of aminoglycosides to DIS can be detected through several biochemical methods: it induces protection toward chemical modification with dimethyl sulfate (DMS) or toward a specific cleavage in the subtype A promoted by lead (II); it also induces slower migration on non-denaturated gel.
At this stage, it was unclear if this class of compound is able to bind to the DIS kissing-loop complex. To compare binding of 4,5-disubstituted and 4,6-disubstituted DOS, a 23-mer RNA corresponding to the subtype A DIS, which was allowed to dimerize in conditions permitting crystallization of the kissing-loop complex, was used. As previously shown, lead (II) induced a specific cleavage in the subtype A DIS loop that is sensitive to the binding of aminoglycoside (FIG. 21).

[2] = test system: DIS kissing-loop complex in RNA1-615 (HIV-1 MAL genomic RNA, subtype A DIS); experiment: Lead-induced cleavage of RNA1-615, primer extension assay; format: binding
Protocol: as §1
To evaluate the capacity of 4,5-disubstituted DOS to bind to the DIS kissing-loop complex in a larger RNA presenting numerous unspecific binding sites, RNA1-615, which corresponds to nucleotides 1 to 615 of the HIV-1 MAL genomic RNA, was used.

[3] = test system: subtype A DIS in RNA1-615 (HIV-1 MAL genomic RNA); experiment: DMS footprinting of aminoglycosides on RNA1-615 (subtype A DIS); format: binding; conditions: for protection against methylation by DMS: even at 100 μM; for protection against methylation by DMS / protection of A280 against methylation by DMS: RNA1-615; for protection of A280 against methylation by DMS: 10 μM and above
Protocol: as §1, §2
Residues A272 and A280 of RNA1-615 are unpaired in the kissing-loop complex and are methylated by DMS at their N1 position. As previously observed (Baudin et al., J. Mol. Biol. 1993, 229:382-397; Paillart et al., J. Mol. Biol. 1997, 270:36-49), A280 is more reactive than A272, even though the latter nucleotide is flipped out of the helix, while the former is stacked inside the structure. […] On the other hand, A272, which is flipped out of the kissing-loop complex was not protected against methylation by DMS (FIG. 22B). […] Thus, even though these compounds bound to short DIS RNA in the same way as neomycin and lividomycin (FIGS. 19A and 19B), they were unable to efficiently recognize this target in the context of a large RNA.

[4] = test system: subtype F kissing-loop complex; experiment: DMS footprinting, subtype F DIS in the context of RNA1-615; format: binding, HIV-1
ribosomal A site = conditions: Wong et al., Chem. Biol. 1998; cited from earlier work
[5] = test system: DIS kissing-loop complex of RNA1-615 (HIV-1 MAL, subtype A DIS); experiment: Competition experiment: exchange of RNA 1-615 homodimer with RNA 1-311 (heterodimer formation); format: biochemical; conditions: for heterodimer formation after addition of RNA1-311: 100 μM aminoglycoside, fivefold excess RNA1-311, up to one hour; for heterodimer formation after addition of RNA1-311 / heterodimer formed compared with dimer 12: 37° C.; for heterodimer formed compared with dimer 12: FIG. 14; for exchange of preformed RNA homodimers (1-615/1-615) with RNA (1-311): FIG. 13
Protocol: Materials and Methods: In a typical experiment, unlabeled 1-615 RNA (400 nM), together with a corresponding internally labeled RNA (3-5 nCi), were heated for 2 min at 90° C., chilled for 2 min on ice, and dimerization was initiated by addition of 2 μl of 5-fold concentrated dimerization buffer (final concentration: 50 mM sodium cacodylate, pH 7.5, 300 mM KCl, 5 mM MgCl2). After incubation at 37° C. for 20 min, 100 μM of aminoglycosides were added to the RNA mixture and incubation was continue for 15 min. Then, RNA 1-311 was added as a competitor and sample were collected at 2, 5, 10, 15, 20, 30, and 60 min and analyzed on 0.8% agarose gels (45 mM Tris borate pH 8.3, 01 mM MgCl2) at 4° C. Gels were fixed in TCA 10%, dried, and analyzed using a BAS 2000 Bio-Imager (Fuji).
The kissing-loop complex of radiolabeled RNA1-615 was formed, and then aminoglycosides at a 100 AM concentration were added. Next, a fivefold excess of unlabeled RNA1-311, encompassing nucleotides 1 to 311 of HIV-1 MAL genomic RNA, that also contains the subtype A DIS and is thus able to form a heterodimer with RNA1-615, was added (FIG. 24). Due to the dynamic nature of the kissing-loop complex, in the absence of aminoglycoside, greater than half of the radioactive material was shifted in the heterodimer within two minutes, and the RNA1-615 homodimer almost completely disappeared upon prolonged incubation. […] This observation is in keeping with the crystal structures showing that 4,5-disubstituted DOS form a bridge between the two RNA molecules (FIG. 18).
The aminoglycosides have also been investigated in solution. Their ability to stabilize the loop-loop interaction was investigated through competition experiments. Preformed RNA homodimers (1-615/1-615) were placed in the presence of the same but shorter RNA (1-311), and the kinetic of their exchanges was followed in the presence, or not, of aminoglycosides (FIG. 13).

[6] = test system: subtype A DIS of HIV-1 genomic RNA; experiment: In situ DMS footprinting in infected CEMx174 cells and virions, subtype A DIS; conditions: infected cells and viral particles; 3 mM aminoglycoside in culture
[7] = test system: subtype F DIS of HIV-1 genomic RNA; experiment: In situ DMS footprinting in infected CEMx174 cells and virions, subtype F DIS; conditions: infected cells and viral particles; 3 mM aminoglycoside in culture
[8] = test system: subtype B DIS of HIV-1 genomic RNA; experiment: In situ DMS footprinting in infected CEMx174 cells and virions, subtype B DIS; conditions: infected cells and viral particles; 3 mM aminoglycoside in culture
[9] = test system: subtype B kissing-loop complex; experiment: DMS footprinting, subtype B DIS; format: binding, HIV-1; conditions: NL4.3 sequence
Protocol: as §1
The dimeric molecules also protect from DMS modification as neomycin (FIG. 10).
In addition, none of the 4,5-disubstituted DOS was bound to the subtype B kissing-loop complex.

[10] = subtype A, loop adenine A280 and guanine G274

SMILES | inhibition of lead-induced cleavage of the DIS loop, relative efficiency [1] | inhibition of lead-induced cleavage between A272 and G273 ([2]; even at 100 μM) | protection against methylation by DMS [3] | binding to the subtype F kissing-loop complex by DMS footprinting [4] | affinity for the ribosomal A site (ribosomal A site) | inhibition of lead-induced cleavage of the subtype A DIS loop [1] | inhibition of lead-induced cleavage between A272 and G273 ([2]; 50 μM) | protection of A280 against methylation by DMS [3] | heterodimer formation after addition of RNA1-311 [5] | heterodimer formed compared with dimer 12 [5] | exchange of preformed RNA homodimers (1-615/1-615) with RNA (1-311) [5] | reduction of alkylation (DMS) of A280 of the subtype A DIS [6] | reduction of alkylation (DMS) of A280 of the subtype F DIS [7] | protection of A280 against DMS methylation of subtype B DIS [8] | protection from DMS modification [3, 10] | protection from DMS modification ([3]; Mal sequence) | interaction seen by DMS modification [9]
NC[C@H]1O[C@H](O[C@H]2[C@H](O[C@@H]3O[C@H](CO)[C@@H](O)[C@H]3O)[C@@H](O)[C@H](N)C[C@@H]2N)[C@H](N)[C@@H](O)[C@@H]1O [ribostamycin] | less efficient | no inhibition | no protection against methylation | did not bind | – | – | – | – | – | – | – | – | – | – | – | – | –
NC[C@H]1O[C@H](O[C@H]2[C@H](O)[C@@H](O)[C@H](N)C[C@@H]2N)[C@H](N)[C@@H](O)[C@@H]1O [neamine] | less efficient; also recorded: inhibited cleavage at lower concentration than the tricyclic ribostamycin | no inhibition | no protection against methylation | did not bind | higher affinity than ribostamycin | – | – | – | – | – | – | – | – | – | – | – | –
NC[C@@H]1O[C@H](O[C@H]2[C@@H](O)[C@H](O[C@@H]3[C@@H](O)[C@H](N)C[C@H](N)[C@H]3O[C@H]3O[C@H](CO)[C@@H](O)C[C@H]3N)O[C@@H]2CO)[C@H](N)[C@@H](O)[C@@H]1O[C@H]1O[C@H](CO)[C@@H](O)[C@H](O)[C@@H]1O [lividomycin] | – | – | – | efficiently bound | – | completely inhibited | almost completely inhibited | strongly protected A280 against methylation | only minimal amounts of heterodimer were formed | twice less heterodimer | almost totally abolish the exchange | more than two-fold | more than two-fold | did not protect A280 | – | – | –
NC[C@H]1O[C@H](O[C@H]2[C@H](O)[C@@H](O[C@H]3O[C@H](CO)[C@@H](O)[C@H](N)[C@H]3O)[C@H](N)C[C@@H]2N)[C@H](N)C[C@@H]1O [tobramycin] | – | – | – | – | – | – | – | – | – | – | – | – | – | – | no protection | – | –
NCC1O[C@H](O[C@@H]2C(N)C[C@@H](N)C(O)[C@H]2O[C@@H]2O[C@H](CO)C(O[C@H]3O[C@H](CN)[C@@H](O)C(O)C3N)[C@@H]2O)C(N)[C@@H](O)[C@@H]1O (some centres unmarked) [neomycin] | equally inhibited | – | – | efficiently bound | – | completely inhibited | almost completely inhibited | strongly protected A280 against methylation | only minimal amounts of heterodimer were formed | twice less heterodimer | almost totally abolish the exchange | more than two-fold | more than two-fold | did not protect A280 | protects from DMS modification the loop adenine A280 and the guanine G274 | protect from DMS modification the bases implicated in the interaction | no significant interaction
NC[C@@H]1O[C@H](O[C@H]2[C@@H](O)[C@H](O[C@@H]3[C@@H](O)[C@H](N)C[C@H](N)[C@H]3O[C@H]3O[C@H](CO)[C@@H](O)[C@H](O)[C@H]3N)O[C@@H]2CO)[C@H](N)[C@@H](O)[C@@H]1O [paromomycin] | – | – | – | – | – | – | – | – | only minimal amounts of heterodimer were formed | twice less heterodimer | almost totally abolish the exchange | more than two-fold | – | did not protect A280 | – | protect from DMS modification the bases implicated in the interaction | no significant interaction

From patent US20110118202A1, “Molecules which Bind to the Dimerization Initiation Site (DIS) of HIV RNA, Their Synthesis and Their Applications as Drugs” (priority 2006, published 2011)
